Assay results taken from patent publication US20090047304A1, “Composition For Body Fat Reduction” (priority 2004, published 2009).

How the values were obtained:
[1] = Takahashi et al.; cited from earlier work
[2] = cited from earlier work
[3] = Double-blind 6-week intake test of test capsules with walking exercise; rate of body fat and body weight measured; format: in vivo, human; settings: by intake of astaxanthin, 6 weeks
Procedure: This Hematococcus alga extract was formed into a capsule containing 6 mg of astaxanthin in terms of the free form (test capsule) and used for test. As placebo capsule (control capsule), a capsule containing 0 mg of astaxanthin and having the same shape was used for test.
32 persons to be tested who were healthy women 23-57 years old were divided at random into two groups i.e. test and control groups, each consisting of 16 persons. The allocation of persons to be tested into test and control groups was conducted in a double-blind method not so as to know persons to be tested and persons participated in test the fact that each of persons to be tested belongs to which group.
Each of persons to be tested in test group took two test capsules a day after supper while each of persons in control group took two placebo capsules a day after supper. The intake period of term (test period of term) was 6 weeks. The rate of body fat and body weight were measured at the beginning (0 week) and the completion (6 weeks) of test for all persons. The rate of body fat was measured with a weighing meter [TBF-511, a product of Tanita Co. Ltd.]
Exercise loaded on all persons to be tested in test period of term was walking. The quantity of exercise was determined by a maximum heart rate countering method. […]

For CC1=C(/C=C/C(C)=C/C=C/C(C)=C/C=C/C=C(C)/C=C/C=C(C)/C=C/C2=C(C)C(=O)C(O)CC2(C)C)C(C)(C)CC(O)C1=O (stereo not drawn) [astaxanthin, 3,3′-dihydroxy-β, β-carotene-4,4′-dione], the mutagenicity [1] is given as “has not been observed having any mutagenicity”, the “antioxidative action, times as strong as vitamin E” value ([2]; relative to vitamin E) is given as “about 1000 times” and the “antioxidative action, times as strong as β-carotene” value ([2]; relative to β-carotene) is given as “about 40 times”. The “rate of body fat (in words)” value [3] was “decreases”.
